Data: PubChem BioAssay (NCI)
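Each compound was tested at five concentrations against cells in 96-well plates for 48 hours. TGI: concentration producing complete growth inhibition.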

Legend:
Experiment in all cases: NCI tumour cell line growth inhibition, 48 h
A549 NSCLC = tested on: A549 NSCLC
HCT-15 colon = tested on: HCT-15 colon
KM12 colon = tested on: KM12 colon
OVCAR-5 ovarian = tested on: OVCAR-5 ovarian
SF-268 CNS = tested on: SF-268 CNS
SK-MEL-2 melanoma = tested on: SK-MEL-2 melanoma
TK-10 renal = tested on: TK-10 renal
UO-31 renal = tested on: UO-31 renal
MALME-3M melanoma = tested on: MALME-3M melanoma
ACHN renal = tested on: ACHN renal

| Structure (SMILES) | TGI (A549 NSCLC) [µM] | TGI (HCT-15 colon) [µM] | TGI (KM12 colon) [µM] | TGI (OVCAR-5 ovarian) [µM] | TGI (SF-268 CNS) [µM] | TGI (SK-MEL-2 melanoma) [µM] | TGI (TK-10 renal) [µM] | TGI (UO-31 renal) [µM] | TGI (MALME-3M melanoma) [µM] | TGI (ACHN renal) [µM] |
| --- | --- | --- | --- | --- | --- | --- | --- | --- | --- | --- |
| O=S(=O)(O)c1ccc(O)c(N=Nc2c(O)ccc3ccccc23)c1 | > 100 | > 100 | > 100 | > 100 | > 100 | > 100 | > 100 | > 100 | – | – |
| O=C1Sc2ccccc2C(=O)N2CCSC12 (centres undefined) | – | > 100 | > 100 | > 100 | – | > 100 | > 100 | > 100 | > 100 | – |
| CCn1c(CCCc2nc3c([nH]2)c(=O)n(C)c(=O)n3C)nc2c1c(=O)n(C)c(=O)n2C | > 100 | > 100 | > 100 | > 100 | > 100 | – | > 100 | > 100 | > 100 | > 100 |
| CC(=O)NC1C(OCc2ccccc2)OC(CO)C(O)C1OC(C)C(=O)NC(C(=O)NC(CCC(=O)NCCCNc1ccc([N+](=O)[O-])c2[nH]c3ccccc3c(=O)c12)C(N)=O)C(C)C (centres undefined) | > 100 | > 100 | > 100 | > 100 | > 100 | > 100 | > 100 | > 100 | – | > 100 |
| O=C1CCC2(O)c3ccccc3C2Cc2ccccc21 (centres undefined) | – | – | > 100 | – | > 100 | > 100 | > 100 | – | > 100 | > 100 |
| CC(=O)C(CN1C(=O)c2ccccc2C1=O)C(C)=O | > 100 | > 100 | – | > 100 | > 100 | > 100 | > 100 | > 100 | – | > 100 |
| Clc1ccc(C2SCc3nc4ccccc4n32)cc1 (centres undefined) | – | > 100 | – | – | 88.4 | 33 | > 100 | 41.7 | 36.7 | > 100 |
| NC1(c2cc3ccccc3s2)CCCCCC1 | 34.2 | 36.9 | 30.5 | 28.7 | – | 22.1 | 28.8 | 28.1 | – | 33.4 |
| COc1ccc(C(C2=C(O)CC(C)OC2=O)C2=C(O)CC(C)OC2=O)cc1 (centres undefined) | > 100 | > 100 | > 100 | > 100 | > 100 | > 100 | – | > 100 | > 100 | > 100 |
| COCC(C#N)NC1CC(OC2CC(O)(C(=O)CO)Cc3c(O)c4c(c(O)c32)C(=O)c2c(OC)cccc2C4=O)OC(C)C1O (centres undefined) | – | 12.8 | 0.77 | 2.54 | 0.691 | 0.316 | 2.42 | 2.77 | 0.18 | 5.46 |
| CC(C)(C)OC(=O)N1C(=O)C2CCCC21 (centres undefined) | > 100 | > 100 | > 100 | > 100 | > 100 | > 100 | – | – | – | > 100 |
| CCCCCCc1ccc(CCCCCCCC(=O)O)o1 | > 100 | > 100 | > 100 | > 100 | – | > 100 | – | > 100 | – | > 100 |
